These results are taken from patent US20060058366A1, “Jnk inhibitor” (KYOWA HAKKO KOGYO CO., LTD., priority 2002, published 2006).

One experiment has as its target T1, mouse JNK 3 (Mus musculus, UniProt Q61831).
T1 construct: made in house; host or cells: COS-7 cells (crude extract)
In words: JNK 3 inhibitory activity (33P incorporation into GST-JSAP1 fused protein). It is filed as biochemical. Conditions: crude extract of COS-7 cells expressing mouse JNK 3; 3 μmol/L ATP; GST-JSAP1 substrate; 30° C., 15 minutes; read-out: JNK3 Inhibitory Activity (IC50/μM). The protocol:
A crude extract of COS-7 cells in which mouse JNK 3 was expressed was used as the transcription enzyme solution. Glutathione-S-transferase (GST)-JSAP 1 (JNK/SAPK associated protein 1) fused protein was expressed in E. coli and its crude extract was subjected to an affinity purification using a column of Glutathione Sepharose 4B. An enzyme solution (3 μL), 50 μL of a reaction solution containing a test compound [in the reaction solution, (physiological saline)/(DMSO solution containing the test compound) (ratio by weight) was adjusted to 99/1], 50 μL of a substrate solution (final concentration: 3 μmol/L ATP), 0.75 μCi/ml[γ-^33P]-ATP and 66 μg/mL (1.5 μmol/L) of GST-JSAP1 fused protein reaction solution were incubated at 30° C. for 15 minutes. The reaction was stopped by addition of ethanol whereupon the GST-JSAP1 fused protein was precipitated. The precipitated protein was filtered using a Filter Mate Harvester (Packard Instruments) and adsorbed to a Unifilter Plate GF/B. Incorporation of radiation activity from [γ-^33P1-ATP to the GST-JSAP1 fused protein was measured using TopCount-HTS (Packard Instruments) to calculate enzyme inhibition activity. The enzyme inhibitory activity was calculated by a Probit (L) method using a statistic analysis software SAS (Release 6.12; SAS Institute, Inc.) as the 50% enzyme activity inhibiting concentration (IC50).

A further experiment concerns PC12 cells. Description: Apoptosis suppressive activity by removal of NGF in NGF-differentiated PC12 cells (MTT). Conditions: 3 μmol/L test compound; 24 hours without NGF; cells with NGF not removed = 100%, NGF removed = 0%. It is filed as cell-based. Here is the method:
PC12 cells prepared in 6.0×10^4/mL by Roswell Park Memorial Institute's Medium (RPMI) 1640 medium containing 10% of horse serum, 5% of bovine fetal serum and penicillin/streptomycin were disposed in a 24-well multidish (NulgeNunc International; No. 143982) coated with polyethyleneimine in an amount of 0.5 mL for each well. After the cells were adhered to the dish, the medium was removed, an RPMI 1640 medium containing […] of 1% horse serum, penicillin/streptomycin and 50 ng/mL of mouse nerve growth factor (NGF) was added and the cells were incubated in a carbon dioxide gas incubator at 37° C. for 9 to 12 days, causing the cells to differentiate into a nerve cell form. A dilution series of DMSO solution of the test compound was prepared, and diluted with a medium containing 1% horse serum and penicillin/streptomycin and containing no NGF (final DMSO concentration: 0.1%). The medium was removed, washing was conducted twice using a medium containing 0.5 mL of the test compound, 1% horse serum, and penicillin/streptomycin, and containing no NGF, 0.5 mL of the above-medium was added once again to each well and then incubation was conducted in a carbon dioxide gas incubator at 37° C. for 24 hours. The medium was removed, 0.2 mL of a medium containing 1% horse serum, penicillin/streptomycin, NGF and 1 mg/mL 3-(4,5-dimethyl-2-thiazolyl)-2,5-diphenyl-2H-tetrazolium bromide (MTT) containing no test compound, was added to each well and incubation was conducted in a carbon dioxide gas incubator at 37° C. for 4 hours. DMSO (0.6 mL) was added to each well and 0.2 mL thereof was transferred to a 96-well multititer plate (Nulge Nunc International; No. 167008) and absorbances at 590 nm and 630 nm were measured using a microplate reader EL 3401 (Bio-Tek). The absorbance differential was calculated by subtracting the […] for each well. The apoptosis suppressive activity (%) of test compound were calculated by comparing the absorbance differential obtained from cells treated with test compound of known concentration with the value in the cells from which no NGF was removed and the value in the cells from which NGF was removed. Here, the value in the cells from which no NGF was removed was set at 100% while the value in the cells from which NGF was removed was set at 0%.

T1 sequence (Q61831 whole entry): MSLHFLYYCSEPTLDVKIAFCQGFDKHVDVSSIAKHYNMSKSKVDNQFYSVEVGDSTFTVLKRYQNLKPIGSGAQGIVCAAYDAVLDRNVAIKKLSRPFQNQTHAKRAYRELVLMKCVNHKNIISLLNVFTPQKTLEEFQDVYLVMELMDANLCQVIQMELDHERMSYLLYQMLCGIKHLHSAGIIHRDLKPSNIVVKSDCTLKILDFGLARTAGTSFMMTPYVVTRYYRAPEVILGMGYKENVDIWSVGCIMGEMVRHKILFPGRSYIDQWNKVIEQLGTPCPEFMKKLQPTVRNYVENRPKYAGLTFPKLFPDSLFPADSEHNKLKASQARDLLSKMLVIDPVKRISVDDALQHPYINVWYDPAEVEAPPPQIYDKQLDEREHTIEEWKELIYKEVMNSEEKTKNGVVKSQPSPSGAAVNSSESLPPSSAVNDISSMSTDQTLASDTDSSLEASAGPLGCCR

For the molecule `O=C(Nc1ccccc1/C=C/c1n[nH]c2ccc(C#CCO)cc12)c1ccccc1` [Compound 26, (E)-3-[2-(2-Benezoylaminophenyl)vinyl]-5-(3-hydroxy-1-propyn-1-yl)-1H-indazole], on mouse JNK 3, the IC50 was below 0.5 µM.

With `O=C(O)c1ccc(/C=C/c2ccc3[nH]nc(/C=C/c4cccnc4)c3c2)cc1` [Compound 17, (E)-5-[2-(4-Carboxyphenyl)vinyl]-(E)-3-[2-(3-pyridyl)vinyl]-1H-indazole], the IC50 at mouse JNK 3 is below 0.5 µM.

`O=C(Nc1ccc2[nH]nc(/C=C/c3cccnc3)c2c1)c1ccccc1` [Compound 4, (E)-5-Benzamido-3-[2-(3-pyridyl)vinyl]-1H-indazole]: the “Apoptosis Suppressive Activity in 3 μmol/L of Test Compound (%)” value (“Apoptosis Suppressive Activity … (%)” for short) in the experiment with PC12 cells is reported as 64%.

Consider `C(=C\c1n[nH]c2ccccc12)/c1cccnc1` [Compound 2, (E)-3-[2-(3-Pyridyl)vinyl]-1H-indazole], for which, on mouse JNK 3, the IC50 was below 0.5 µM. Further, in the experiment with PC12 cells, the “Apoptosis Suppressive Activity … (%)” value is 44%.

With `O=C(Nc1ccccc1/C=C/c1n[nH]c2ccc(/C=C/CO)cc12)c1ccccc1` [Compound 25, (E)-3-[2-(2-Benzoylaminophenyl)vinyl]-(E)-5-(3-hydroxy-1-propen-1-yl)-1H-indazole], the IC50 at mouse JNK 3 is below 0.5 µM.

As for `O=C(Nc1ccc2[nH]nc(/C=C/c3cccnc3)c2c1)c1ccncc1` [Compound 11, (E)-5-(4-Pyridinecarboxamido)-3-[2-(3-pyridyl)vinyl]-1H-indazole], the IC50 at mouse JNK 3 is below 0.5 µM.

`COC(=O)/C=C/c1ccc2[nH]nc(/C=C/c3cccnc3)c2c1` [Compound 14, (E)-5-(2-Methoxycarbonylvinyl)-(E)-3-[2-(3-pyridyl)vinyl]-1H-indazole]: at mouse JNK 3, the IC50 was below 0.5 µM. Further, the “Apoptosis Suppressive Activity … (%)” value in the experiment with PC12 cells is given as 62%.

With `O=C(O)c1ccc2[nH]nc(/C=C/c3cccnc3)c2c1` [Compound 19, (E)-3-[2-(3-Pyridyl)vinyl]-1H-indazole-5-carboxylic acid], the IC50 on mouse JNK 3 was below 0.5 µM.

“(E)-3-[2-(Benzamidopyridin-3-yl)vinyl]-(E)-5-(2-carboxyvinyl)-1H-indazole [Compound 23]”: the IC50 at mouse JNK 3 was below 0.5 µM.

Turning to `CN(C)CCOc1ccc(/C=C/c2n[nH]c3ccccc23)cc1` [Compound 1], the IC50 on mouse JNK 3 was below 0.5 µM. Also, the “Apoptosis Suppressive Activity … (%)” value in the experiment with PC12 cells stood at 63%.

As to `OCC=Cc1ccc2[nH]nc(/C=C/c3cccnc3)c2c1` [Compound 21, (E)-5-(3-Hydroxy-1-propen-1-yl)-3-[2-(3-pyridyl)vinyl]-1H-indazole], at mouse JNK 3, the IC50 is below 0.5 µM.

Turning to `O=C(CCS(=O)(=O)c1ccccc1)Nc1ccc2[nH]nc(/C=C/c3cccnc3)c2c1` [Compound 7, (E)-5-[3-(Phenylsulfonyl)propaneamido]-3-[2-(3-pyridyl)vinyl]-1H-indazole], the IC50 at mouse JNK 3 stood at 1.2 µM.

`O=C(O)c1ccc(C(=O)Nc2ccc3[nH]nc(/C=C/c4cccnc4)c3c2)cc1` [Compound 12, (E)-5-(4-Carboxybenzamido)-3-[2-(3-pyridyl)vinyl]-1H-indazole]: the IC50 on mouse JNK 3 is below 0.5 µM.

On to `OCC#Cc1ccc2[nH]nc(/C=C/c3cccnc3)c2c1` [Compound 18, (E)-5-(3-hydroxy-1-propyn-1-yl)-3-[2-(3-pyridyl)vinyl]-1H-indazole], for which the IC50 at mouse JNK 3 was below 0.5 µM.

As to `O=C(Nc1ccc2[nH]nc(/C=C/c3cccnc3)c2c1)c1cnccn1` [Compound 9, (E)-5-(Pyrazinecarboxamido)-3-[2-(3-pyridyl)vinyl]-1H-indazole], the IC50 on mouse JNK 3 was 0.55 µM.

With `O=C(Cc1c[nH]c2ccccc12)Nc1ccc2[nH]nc(/C=C/c3cccnc3)c2c1` [Compound 6, (E)-5-(3-Indolyl)acetamide-3-[2-(3-pyridyl)vinyl]-1H-indazole], at mouse JNK 3, the IC50 was below 0.5 µM.

Consider `O=C(O)c1ccc(C(=O)Nc2ccc3[nH]nc(/C=C/c4cnccc4NC(=O)c4ccccc4)c3c2)cc1` [Compound 24, (E)-3-[2-(4-Benzamidopyridin-3-yl)vinyl]-5-(4-carboxybenzamido)-1H-indazole], for which the IC50 at mouse JNK 3 is below 0.5 µM.

Take `O=C(O)/C=C/c1ccc2[nH]nc(/C=C/c3cccnc3)c2c1` [Compound 15, (E)-5-(2-Carbonxyvinyl)-(E)-3-[2-(3-pyridyl)vinyl]-1H-indazole]: the IC50 on mouse JNK 3 was below 0.5 µM.
